Patent publication US4992535A, “Methods of making novel R and S diastereomers of N^6 -[(2-hydroxypropyl)aryl]adenosines” (G. D. Searle & Co., priority 1988, dated 1991)
Entries after “also recorded” stand apart in the source; their conditions may differ.

Assays:
[1] = test system: spontaneously hypertensive rats (SHR); test: Mean arterial pressure and heart rate in conscious spontaneously hypertensive rats (IV and intragastric); format: in vivo, rat; settings: for Maximum decrease at 20 mg/kg ig, HR / Maximum decrease at 20 mg/kg ig, MAP: day 2 of oral administration; for ED (100 b/min decrease) / ED (40 mmHg decrease): Rattus norvegicus, IV; for ED (100 b/min decrease): read-out: IV dose to decrease HR by 100 b/min; for ED (40 mmHg decrease): read-out: IV dose to decrease MAP by 40 mmHg
Method: The effects of compounds I and II were tested intravenously or intragastrically in conscious spontaneously hypertensive rats (SHR). The rats were anesthetized with ether and the left carotid artery and right jugular vein were cannulated with polyethylene tubing. The rats were allowed three to five hours recovery from anesthesia for the I.V. studies and 12 to 18 hours for the oral studies. Mean arterial pressure (MAP, in mm/Hg) and heart rate (HR, beats/min.) were measured from the artery; intravenous administration of compounds was performed by injection into the vein. Oral administration was performed by gastric intubation. Compounds were dissolved in DMSO for I.V. studies and injected in volumes of […] or less (N=5 per compound). Doses were 3 to 1,000 mg/kg. Compounds were dissolved in polyethylene glycol for oral administration and injected in volumes of 1 ml/kg at dose of 20 mg/kg/day for three days (N=3 to 6 per compound).
The resting MAP and HR for the SHR ranged between 160-200 mm Hg and 330/350 b/min., respectively.

adenosine A1 receptor = molecular target: T1, adenosine A1 receptor (Rattus norvegicus, UniProt P25099); test: Adenosine A1 receptor binding, inhibition of HPIA binding to crude plasma membranes
T1 construct: Crude plasma membranes were prepared; from tissue; host or cells: crude plasma membranes
T1 sequence (P25099 1-326): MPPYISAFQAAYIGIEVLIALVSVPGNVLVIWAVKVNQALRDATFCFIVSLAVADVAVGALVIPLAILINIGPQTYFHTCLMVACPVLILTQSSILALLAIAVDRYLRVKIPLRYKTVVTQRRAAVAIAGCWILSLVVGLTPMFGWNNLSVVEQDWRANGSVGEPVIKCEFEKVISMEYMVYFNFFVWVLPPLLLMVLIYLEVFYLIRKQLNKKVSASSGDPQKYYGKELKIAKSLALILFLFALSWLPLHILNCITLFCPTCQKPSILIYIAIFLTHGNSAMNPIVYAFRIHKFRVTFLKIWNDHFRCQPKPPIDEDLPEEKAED
Method: The binding potency of compound I, II and III to the adenosine Al receptor was measured according to the method of Schwabe, U. et al., Naunyn Schmeid. Arch. Pharmacol. 321:84, 1982. Crude plasma membranes were prepared and varying concentrations of compounds I, II or III were added to the membrane preparation in the presence of ^125 -N-p hydroxyphenyl isopropyladenosine (HPIA). The affinity of the compounds for the adenosine Al receptor was estimated from the concentrations necessary to inhibit the binding of HPIA by 50% (IC50).

[2] = test system: PRA in Sprague Dawley rats with renal arteries ligated; test: Plasma renin activity (PRA) in the bilateral renal artery ligated rat; format: in vivo; settings: 1 mg/kg IV; for prevention of PRA increase, in words: 30 and 60 minutes; for Change in PRA at 30 minutes: 30 minutes after dosing; for Change in PRA at 60 minutes: 60 minutes after dosing
Method: Adenosine Al receptor stimulation will inhibit the release of renin from the kidney. A stimulus for the release of renin is renal ischemia. The ability of the compounds of the present invention to prevent an increase in PRA following renal ischemia was tested in rats with both renal arteries ligated. Sprague Dawley rats were anesthetized with ether and the renal arteries were ligated. Three to five hours after anesthesia, arterial blood was sampled and compounds I, II or III were administered in polyethylene glycol at 1 mg/kg I.V. At 30 and 60 minutes after administration, arterial blood was sampled for PRA measurement by the method of Sealy, J. E. et al., Cardiovasc. Med. 2:1079, 1977.

mice [3] = test: Ataxia, rotating rod, in mice; format: in vivo, mouse; settings: for Percent ataxic, 0.5 hour / Percent ataxic, 3 hour: 54 ± 12 mg/kg ip (pooled 32, 56, 75 mg/kg); for ataxia / motor toxicity compared to compound I, in words: ip, 0.5 or 3 hours
Method: (§1) Adenosine analogs tend to produce sedation and central nervous system depression which have prevented their therapeutic utility. The compounds of the invention, at doses which lower arterial pressure in the SHR, show no evidence of CNS depression. The ataxia produced by compounds of the present invention was measured in mice by injecting the compounds IP at doses of 32, 56, or 75 mg/kg in an aqueous suspension, n=7 per dose. The mice had previously been trained to remain on a rotating rod. After dosing, the percent of mice unable to remain on the rotating rod was determined. […] The mice were also observed at various time intervals for behavioral signs of toxicity.

mice [4] = test: Behavioral signs of toxicity in mice; format: in vivo; set-up: key to Motor depression / Ptosis / Respiratory depression / Flaccidity / Loss of righting reflex: +: toxic symptom observed; +*: * = 2/7; +^#: ^# = 5/7; settings: 75 mg/kg IP
Method: as §1

[5] = test system: adenosine A1 receptor in the granular juxtaglomerular cells of the kidney; settings: Federation Proceedings 44:879 & 1643, 1985; cited from earlier work
hypertensive models = settings: Federation Proceedings 44:879 & 1643, 1985; cited from earlier work
central nervous system = test: CNS toxicity / CNS depression, general statements; format: in vivo; settings: summary statement

SMILES | Maximum decrease at 20 mg/kg ig, HR [1] [b/min] | Maximum decrease at 20 mg/kg ig, MAP [1] [mmHg] | ED (100 b/min decrease) [1] [mg/kg] | ED (40 mmHg decrease) [1] [mg/kg] | IC50 (adenosine A1 receptor) [nM] | prevention of PRA increase, in words [2] | Change in PRA at 30 minutes [2] [ngAI/ml/hr] | Change in PRA at 60 minutes [2] [ngAI/ml/hr] | Percent ataxic, 0.5 hour (mice [3]) [%] | Percent ataxic, 3 hour (mice [3]) [%] | behavioral toxicity in words (mice [4]; 18-20 hours) | Flaccidity (mice [4]; 18-20 hr) | Motor depression (mice [4]; 18-20 hr) | Ptosis (mice [4]; 18-20 hr) | Motor depression (mice [4]; 0.5 hr) | Ptosis (mice [4]; 0.5 hr) | Respiratory depression (mice [4]; 0.5 hr) | Motor depression (mice [4]; 3 hr) | Ptosis (mice [4]; 3 hr) | Respiratory depression (mice [4]; 3 hr) | also measured
OC[C@H]1O[C@@H](n2cnc3c(NCC(O)COc4cccc5ccccc45)ncnc32)[C@H](O)[C@@H]1O (mixture of isomers) [Compound I, N(6) [2 hydroxy-3-(1 naphthyloxy)propyl]-adenosine] | 214 ± 14 | 50 ± 13 | 0.037 ± 0.0013 | 0.052 ± 0.0013 | 1.2 | prevented to the same extent | -2.9 ± 5.0 | -9.4 ± 7.4 | 33 ± 10 | 95 ± 5 | still producing several of the toxic symptoms | +* | + | + | + | + | + | + | + | + | Respiratory depression (mice [4]; 18-20 hr): +; behavioral toxicity in words (mice [4]; 3 hours): also produced flaccidity and loss of writhing reflex; Flaccidity (mice [4]; 3 hr): +; Loss of righting reflex (mice [4]; 3 hr): +; binding to the adenosine A1 receptor, in words [5]: binds to the adenosine Al receptor; inhibition of renin release into the plasma, in words [5]: inhibit release of renin into the plasma; arterial blood pressure and heart rate, in words (hypertensive models): reducing arterial blood pressure and heart rate
OC[C@H]1O[C@@H](n2cnc3c(NC[C@@H](O)COc4cccc5ccccc45)ncnc32)[C@H](O)[C@@H]1O [II, N-[2R-hydroxy-3-(1-naphthalenyloxy)propyl]-adenosine] | 202 ± 24 | 62 ± 7 | 0.036 ± 0.0012 | 0.047 ± 0.0012 | 1.2 | prevented to the same extent | -11.7 ± 3.5 | -13.8 ± 4.9 | 14 ± 8 | 48 ± 21 | still producing several of the toxic symptoms | + | + | + | + | + | + | + | + | + | ataxia / motor toxicity compared to compound I, in words (mice [3]): less motor toxicity than compound I; also recorded: less toxic than compound I with regard to ataxia; also recorded: less ataxia at 0.5 or 3 hours as compared to compound I; Respiratory depression (mice [4]; 18-20 hr): +; behavioral toxicity in words (mice [4]; 24 hours): still producing toxic symptoms; Motor depression (mice [4]; 24 hr): +^#; Ptosis (mice [4]; 24 hr): +^#; Respiratory depression (mice [4]; 24 hr): ^#; central nervous system toxicity, comparison in words (central nervous system): less central nervous system toxicity than the S diastereomer; also recorded: less central nervous system toxicity than the racemic mixture
OC[C@H]1O[C@@H](n2cnc3c(NC[C@H](O)COc4cccc5ccccc45)ncnc32)[C@H](O)[C@@H]1O [III, N-[2S-hydroxy-3[1-naphthalenyloxy)propyl]-adenosine] | 177 ± 19 | 50 ± 14 | 0.031 ± 0.0014 | 0.033 ± 0.0012 | 1.2 | prevented to the same extent | -6.6 ± 4.0 | -6.3 ± 3.9 | 14 ± 0 | 57 ± 8 | no toxicity was observed | – | – | – | + | + | + | + | + | + | ataxia / motor toxicity compared to compound I, in words (mice [3]): less motor toxicity than compound I; also recorded: less ataxia at 0.5 or 3 hours as compared to compound I; behavioral toxicity, overall comparison in words (mice [4]; mice): substantially less toxic than compounds I and II; also recorded: less CNS toxic than compound II with regard to behavioral toxicity
